# Results from patent publication US20220202912A1, “Polypeptides in Preparation of Drugs for Treatment or Prevention of Rheumatoid Arthritis” (priority 2011, published 2022).
# Like-named read-outs stand apart in the source and are kept apart here. Where no end group is shown, it is not given here.
# Experiments:
# [1] = tested on: cotton ball granuloma; format: in vivo, SD rats; settings: day 8
# Experimental: The rats are randomly divided into a model control group, a positive control (dexamethasone) group, and mPEG-SC20k-HM-3 groups using subcutaneous injection at a high dose, a medium dose and a low dose, a total of 5 groups, and the drugs are administered to each group of animals by subcutaneous injection, for 7 days in succession.
# Rats in each group are anesthetized with pentobarbital sodium (40 mg/kg) by intraperitoneal injection, and the abdominal coat is cut off. The skin in the middle of the lower abdomen is cut open under aseptic condition, and the incision is about 1 cm long. The subcutaneous tissue is expanded by vascular forceps, and 30 mg of sterile dry cotton balls (weighed accurately by an electronic balance before the test, and undergoing conventional autoclaving and drying for later use) are implanted hypodermically into the groin on one side. The incision is sutured, and an appropriate amount of amoxicillin is sprinkled on the incision to prevent infection.
# The drug is administered on the same day after surgery, and is administered for 7 days in succession. On day 8, the rats are killed by cervical dislocation, the cotton balls are removed surgically, the fat tissue is removed, and the […] at 60° C. The mass of granuloma is expressed in mg (granulomatoma)/100 g (body weight). The granuloma mass difference between each administration group and the model control group is compared, and the inhibition rate is calculated. Data statistical analysis is performed on significant differences between the groups.
# Inhibition rate (%)=(average granuloma mass of model control group−average granuloma mass of administration group)/average granuloma mass of model control group×100%.
# [2] = tested on: HUVECs; experiment: Western blot of protein expression in HUVECs; format: cell-based, human; settings: 0.5-8.0 μmol/L, 24 h
# Experimental: 3.2 After the third generation of human umbilical vein endothelial cells (HUVECs) are cultured in a 6-well plate to more than 80% fusion, the polypeptide mPEG-SC20k-HM-3 is added to final concentrations of 0.5, 1.0, 2.0, 4.0, 8.0 μmol/L, and PBS is used as a blank control. The cells are incubated in a CO2 incubator at 37° C. for 24 h; the cells are digested with 0.25% trypsin and counted, the solution is centrifuged at 3000 rpm for 5 min, and the cells are collected.
# 3.3 A protein extract solution is added at 20 μL/1×10^5 cells, and the cells are pipetted and dispersed, and stand at 4° C. for 30 min to lyse the cells.
# 3.4 1/4 volume of 5×protein loading buffer is added, and boiling water bath is performed for 5-10 min.
# 3.5 20 μL of protein sample is taken and 10% SDS-PAGE electrophoresis is performed.
# 3.6 The protein on the gel is transferred to the PVDF membrane by using a wetting transfer method with a constant current of 100 mA for 1-2.5 h.
# 3.7 The PVDF membrane is blocked with a blocking solution at room temperature for 2 h.
# 3.8 The membrane is washed for 3 times with PBST, 5 min each time. A primary antibody is added and the membrane stands at 4° C. overnight or is incubated at 37° C. for 2 h.
# 3.9 The membrane is washed for 3 times with PBST, 5 min each time. A secondary antibody is added and the membrane is incubated at room temperature for more than 2 h. […]
# [3] = tested on: human U937 cells; experiment: human whole genome array of U937-derived macrophages; format: cell-based; settings: 13.5 μmol/L, 48 h
# Experimental: 1.1.1 U937 cells are cultured in a 6-well plate at 3×10^6 cells/mL per well overnight, and PMA (25 ng/mL) is added on the next day for induction for 48 h. After the cells adhere, cultured supernatant is pipetted away. The cells are treated with mPEG-SC20k-HM-3 (test group) or a medium (negative control group) at 13.5 μmol/L at 37° C. for 48 h.
# 1.1.2 1×10^6 cells are taken from each of two groups of samples, and the solution has […], and is centrifuged for 5 min. The supernatant is removed. 1 mL of TRIZOL lysis solution is added and mixed uniformly, and the solution stands at room temperature for 5 min.
# 1.2 DNase I digest the RNA sample to remove any genomic DNA that may be contained therein. […]
# 1.8.2 Sample adding: An membrane on the PCR Array is opened, 10 μL of mixture is added to each well corresponding to the PCR Array, and a lid is closed to seal the PCR Array; after a real-time quantitative PCR program is set, the PCR Array is placed on the real-time quantitative PCR instrument for PCR reaction, and the prepared PCR Array is placed on ice before the PCR program is set. […]
# 1.9.3 2^−ΔΔCt values of the test group and the control group are calculated to analyze the difference in expression of the corresponding genes between the test group and the control group. […]
substance,measurement,setting,value
"mPEG-SC20k-Ile-Val-Arg-Arg-Ala-Asp-Arg-Ala-Ala-Val-Pro-Gly-Gly-Gly-Gly-Arg-Gly-Asp ({mPEG‑SC 20k}-IVRRADRAAVPGGGGRGD) [polypeptide III, No. 3]",Inhibition rate of cotton ball granuloma,[1]; 5 mg/kg sc once two days (G5),35.67%
same,cotton ball granuloma,[1]; 5 mg/kg sc once two days (G5),0.19 ± 0.03 mg(cotton ball granuloma)/100 g(weight)
same,Inhibition rate of cotton ball granuloma,[1]; 10 mg/kg sc once two days (G4),39.33%
same,cotton ball granuloma,[1]; 10 mg/kg sc once two days (G4),0.18 ± 0.02 mg(cotton ball granuloma)/100 g(weight)
same,Inhibition rate of cotton ball granuloma,[1]; 20 mg/kg sc once two days (G3),38.23%
same,cotton ball granuloma,[1]; 20 mg/kg sc once two days (G3),0.18 ± 0.03 mg(cotton ball granuloma)/100 g(weight)
same,expression of VEGF in HUVECs,[2],down-regulated
same,"expression of integrin αν, integrin β3, MEK1, p-MEK1, PI3K, AKT1, p-AKT1, ERK1/2 and p-ERK1/2 in HUVECs",[2],down-regulated
same,number of related factors down-regulated at the mRNA level,[3],538
same,number of related factors up-regulated at the mRNA level,[3],499
